This note sets out measurements from US20230027026A1, “FUSED PYRIMIDINE COMPOUNDS, COMPOSITIONS AND MEDICINAL APPLICATIONS THEREOF” (JUBILANT BIOSYS LIMITED, priority 2019, published 2023).

pEC50, pIC50: −log10 of the molar value.

The target in assay [1] is HER2 (WT) expressing Ba/F3 stable cell line (Homo sapiens, UniProt P04626). Put plainly: Cellular proliferation (Alamar Blue) assay, HER2 WT Ba/F3. The following applies: HER2 WT Ba/F3, 72 hr, read-out: HER2 WT Ba/F3 IC50. The assay is classed as cell-based. Here is the method: (§1) Example 3: Cellular Proliferation (Alamar Blue) Assays
(§2) • 1. EGFR(D770_N771insSVD) expressing Ba/F3 stable cell line • 2. EGFR (A767_dupASV) expressing Ba/F3 stable cell line • 3. A431 cells • 4. BTER2 (A775_G776insYVMA) expressing Ba/F3 stable cell line • 5. BTER2 (WT) expressing Ba/F3 stable cell line • 6. BT-474 cells
(§3) • 1. Seed cells at 5000 for A431 and 15,000 cells for Ba/F3 in 100 μL/well in complete media (for A431: DMEM with 10% FBS and for Ba/F3 cells: RPMI with 10% FBS) in 96-well tissue culture plate. Leave outer wells without cells for background measurements. Incubate at 37 degree Celsius in 5% CO2 humidified incubator for 16-18 hours. • 2. Add 0.025 ml of 5× concentration compound dilution or DMSO control. Final compound concentration range is 10-0.0005 μM prepared in 3-fold serial dilutions. Incubate for 72 hr at 37 degree Celsius in […] humidified incubator. • 3. Add 0.0125 mL Alamar Blue™ reagent to each well with multi-channel pipette and tap gently on each side of the plate to mix. Incubate for 3 hours at 37 degree Celsius in […] humidified incubator. • 4. Read plates on fluorescence reader (Tecan Spark Control, Device: Spark, Serial #: 1801006040) at 540 nm excitation, 590 nm emission wavelength. • 5. Data analysis was performed using XLfit 5.5.0.5.
In general terms: Alamar Blue is a resazurin reagent that responds to reducing activity.

Assay [2] deals with H1975 cells (L858R_T790M mutant). Put plainly: H1975 proliferation assay. It is filed as cell-based. To be noted: Homo sapiens, NCI-H1975; read-out: Proliferation_Assay H1975 cells-EC50_nM L858R_T790M_mutant.
The subject of assay [3] is A431 cells. Put plainly: Cellular proliferation (Alamar Blue) assay, A431. It is filed as cell-based. To be noted: Homo sapiens, A-431; A431 cells, 72 hr, Alamar Blue; read-out: A431 IC50. Summed up:
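Seventy-two-hour growth assay with 3-fold compound titration (final 10–0.0005 μM) and Alamar Blue fluorescence end point, ex 540/em 590 nm.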

The subject of assay [4] is BT-474 cells. Put plainly: Cellular proliferation (Alamar Blue) assay, BT-474. It is filed as cell-based. To be noted: Homo sapiens. As for the experimental part: as §1, §2, §3
In assay [5] the target is EGFR (A767_dupASV) expressing Ba/F3 stable cell line (Homo sapiens, UniProt P00533, DUP767-769, cells depend on it). Put plainly: Cellular proliferation (Alamar Blue) assay, EGFR A767_dupASV Ba/F3. The following applies: EGFR A767_dupASV Ba/F3, 72 hr, read-out: A767 IC50. The assay is classed as cell-based. Summed up: (§4)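 Fluorescence read-out (ex 540/em 590 nm) after 3 h Alamar Blue incubation, following 72 h compound exposure at 37 °C, 5% CO2. Final compound range 10–0.0005 μM, 3-fold steps; Ba/F3 cells plated 15,000/well in RPMI + 10% FBS overnight beforehand.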

Assay [6] addresses T1, EGFR (T790M/L858R) (Homo sapiens, UniProt P00533, L858R/T790M).
T1 construct: GST; purchased Proqinase
The assay can be described thus: EGFR L858R/T790M enzyme inhibition assay (HTRF). It is filed as biochemical. To be noted: 5 μM ATP, 60 min, read-out: EGFR_L858R T790M_IC50_nM. Summed up: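 HTRF kinase assay with 2.5 nM GST-EGFR T790M/L858R, 0.5 μM biotinylated gastrin peptide and 5 μM ATP in HEPES pH 7.4 with Mg/Mn, 60 min at room temperature; compounds from 10 μM top. Phosphotyrosine detected by Eu anti-pTyr/SA-APC; IC50 from % inhibition.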

For assay [7], the target named is HER2 (A775_G776insYVMA) expressing Ba/F3 stable cell line (Homo sapiens, UniProt P04626, DUP772-775, cells depend on it). Put plainly: Cellular proliferation (Alamar Blue) assay, HER2 YVMA Ba/F3. The assay is classed as cell-based. To be noted: HER2 A775_G776insYVMA Ba/F3, 72 hr, read-out: YVMA IC50. Put shortly:
as §4

The target in assay [8] is EGFR(D770_N771insSVD) expressing Ba/F3 stable cell line (Homo sapiens, UniProt P00533, DUP768-770, cells depend on it). The assay can be described thus: Cellular proliferation (Alamar Blue) assay, EGFR D770_N771insSVD Ba/F3. The assay is classed as cell-based. The following applies: EGFR D770_N771insSVD Ba/F3, 72 hr, read-out: D770 IC50. Summed up: as §4
EGFR(D770_N771insSVD) expressing Ba/F3 stable cell line, sequence (P00533 with tags, fused parts or gaps DUP768-770): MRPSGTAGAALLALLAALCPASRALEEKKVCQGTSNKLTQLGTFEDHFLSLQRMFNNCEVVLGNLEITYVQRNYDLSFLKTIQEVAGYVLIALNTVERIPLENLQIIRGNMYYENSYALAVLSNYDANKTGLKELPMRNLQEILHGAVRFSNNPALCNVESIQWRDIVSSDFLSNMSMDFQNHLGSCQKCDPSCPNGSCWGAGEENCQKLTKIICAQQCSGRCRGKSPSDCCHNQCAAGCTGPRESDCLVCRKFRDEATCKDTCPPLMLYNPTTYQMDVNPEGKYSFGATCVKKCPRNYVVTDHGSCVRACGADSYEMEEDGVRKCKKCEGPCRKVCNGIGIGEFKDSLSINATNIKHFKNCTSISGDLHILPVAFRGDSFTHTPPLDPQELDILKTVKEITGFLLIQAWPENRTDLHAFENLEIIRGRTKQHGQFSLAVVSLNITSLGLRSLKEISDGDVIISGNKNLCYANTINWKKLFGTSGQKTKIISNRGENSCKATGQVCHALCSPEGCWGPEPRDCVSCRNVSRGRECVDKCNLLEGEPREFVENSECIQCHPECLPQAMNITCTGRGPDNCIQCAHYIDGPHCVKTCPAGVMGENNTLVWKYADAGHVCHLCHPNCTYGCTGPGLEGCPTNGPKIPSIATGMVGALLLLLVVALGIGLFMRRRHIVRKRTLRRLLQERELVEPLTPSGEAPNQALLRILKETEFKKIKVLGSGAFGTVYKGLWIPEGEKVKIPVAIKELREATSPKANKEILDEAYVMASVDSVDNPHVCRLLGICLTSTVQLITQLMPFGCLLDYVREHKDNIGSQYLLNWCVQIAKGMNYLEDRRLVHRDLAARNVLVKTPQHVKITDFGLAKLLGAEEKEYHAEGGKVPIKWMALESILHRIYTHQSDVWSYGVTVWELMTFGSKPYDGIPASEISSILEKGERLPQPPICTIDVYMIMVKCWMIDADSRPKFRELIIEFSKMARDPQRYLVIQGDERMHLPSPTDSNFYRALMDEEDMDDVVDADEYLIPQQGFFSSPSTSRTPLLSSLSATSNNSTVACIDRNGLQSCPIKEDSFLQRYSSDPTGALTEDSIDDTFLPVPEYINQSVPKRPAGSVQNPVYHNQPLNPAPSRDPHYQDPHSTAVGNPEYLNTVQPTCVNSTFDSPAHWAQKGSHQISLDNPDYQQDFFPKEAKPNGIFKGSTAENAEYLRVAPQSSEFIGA

T1 sequence (P00533 25-1210 T790M/L858R): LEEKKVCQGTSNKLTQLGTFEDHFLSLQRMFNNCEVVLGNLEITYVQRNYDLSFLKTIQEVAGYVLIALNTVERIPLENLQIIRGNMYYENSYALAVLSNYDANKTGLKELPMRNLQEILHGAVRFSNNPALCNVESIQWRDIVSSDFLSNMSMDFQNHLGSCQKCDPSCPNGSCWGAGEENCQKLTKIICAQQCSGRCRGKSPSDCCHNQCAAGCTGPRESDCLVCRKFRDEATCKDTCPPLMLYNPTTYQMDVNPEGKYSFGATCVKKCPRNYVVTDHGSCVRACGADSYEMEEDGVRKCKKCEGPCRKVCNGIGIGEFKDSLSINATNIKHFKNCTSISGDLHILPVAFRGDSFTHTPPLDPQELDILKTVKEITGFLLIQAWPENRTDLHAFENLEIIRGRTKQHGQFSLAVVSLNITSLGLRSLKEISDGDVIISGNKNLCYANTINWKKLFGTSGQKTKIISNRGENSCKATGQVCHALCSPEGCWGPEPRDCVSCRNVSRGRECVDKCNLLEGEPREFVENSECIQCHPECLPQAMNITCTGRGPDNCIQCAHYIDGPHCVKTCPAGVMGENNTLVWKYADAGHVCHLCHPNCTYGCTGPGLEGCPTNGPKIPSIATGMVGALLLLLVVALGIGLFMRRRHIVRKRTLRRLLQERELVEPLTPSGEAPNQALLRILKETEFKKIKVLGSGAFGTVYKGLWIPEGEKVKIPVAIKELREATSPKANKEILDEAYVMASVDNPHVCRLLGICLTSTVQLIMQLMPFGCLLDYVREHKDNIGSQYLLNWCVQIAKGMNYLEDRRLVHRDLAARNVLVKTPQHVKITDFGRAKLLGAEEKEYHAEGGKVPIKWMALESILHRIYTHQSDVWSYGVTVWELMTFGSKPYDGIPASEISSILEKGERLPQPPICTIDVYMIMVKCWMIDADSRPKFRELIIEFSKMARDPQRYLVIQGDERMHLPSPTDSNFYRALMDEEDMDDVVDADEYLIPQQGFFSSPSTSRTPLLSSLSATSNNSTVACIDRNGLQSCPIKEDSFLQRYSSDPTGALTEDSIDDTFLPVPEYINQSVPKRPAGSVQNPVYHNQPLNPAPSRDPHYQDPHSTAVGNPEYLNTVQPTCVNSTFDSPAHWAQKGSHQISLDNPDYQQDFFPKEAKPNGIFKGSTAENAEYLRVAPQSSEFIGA
HER2 (A775_G776insYVMA) expressing Ba/F3 stable cell line, sequence (P04626 with tags, fused parts or gaps DUP772-775): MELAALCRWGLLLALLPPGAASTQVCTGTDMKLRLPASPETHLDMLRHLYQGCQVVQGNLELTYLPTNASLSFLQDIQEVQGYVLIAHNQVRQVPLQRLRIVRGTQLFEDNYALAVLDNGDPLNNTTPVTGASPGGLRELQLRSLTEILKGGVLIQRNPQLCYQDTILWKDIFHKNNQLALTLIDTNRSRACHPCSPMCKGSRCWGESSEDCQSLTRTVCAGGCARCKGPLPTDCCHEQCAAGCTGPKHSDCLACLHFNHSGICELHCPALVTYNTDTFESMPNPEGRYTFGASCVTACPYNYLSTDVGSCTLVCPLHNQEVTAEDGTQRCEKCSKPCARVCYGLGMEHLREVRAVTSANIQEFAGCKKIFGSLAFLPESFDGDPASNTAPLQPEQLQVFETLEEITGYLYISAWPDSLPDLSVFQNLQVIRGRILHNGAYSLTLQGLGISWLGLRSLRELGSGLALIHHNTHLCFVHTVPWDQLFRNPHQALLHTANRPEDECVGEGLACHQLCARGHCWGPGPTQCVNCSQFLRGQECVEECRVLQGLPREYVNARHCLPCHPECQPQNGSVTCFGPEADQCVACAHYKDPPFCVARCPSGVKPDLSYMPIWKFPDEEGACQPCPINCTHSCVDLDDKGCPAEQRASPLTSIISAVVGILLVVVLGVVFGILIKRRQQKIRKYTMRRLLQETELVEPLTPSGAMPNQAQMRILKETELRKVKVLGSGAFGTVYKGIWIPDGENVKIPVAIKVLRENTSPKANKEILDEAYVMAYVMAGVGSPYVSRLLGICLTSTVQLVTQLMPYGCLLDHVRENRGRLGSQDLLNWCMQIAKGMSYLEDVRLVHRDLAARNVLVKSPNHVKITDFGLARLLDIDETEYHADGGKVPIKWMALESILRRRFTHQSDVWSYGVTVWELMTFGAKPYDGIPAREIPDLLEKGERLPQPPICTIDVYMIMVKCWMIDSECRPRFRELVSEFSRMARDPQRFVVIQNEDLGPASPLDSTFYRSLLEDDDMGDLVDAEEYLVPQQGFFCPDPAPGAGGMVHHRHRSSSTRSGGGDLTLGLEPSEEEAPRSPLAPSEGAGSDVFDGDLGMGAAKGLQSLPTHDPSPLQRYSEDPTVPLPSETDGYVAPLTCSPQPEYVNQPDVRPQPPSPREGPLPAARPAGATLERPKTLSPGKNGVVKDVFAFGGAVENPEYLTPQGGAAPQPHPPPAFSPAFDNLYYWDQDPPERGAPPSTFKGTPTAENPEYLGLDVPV
EGFR (A767_dupASV) expressing Ba/F3 stable cell line, sequence (P00533 with tags, fused parts or gaps DUP767-769): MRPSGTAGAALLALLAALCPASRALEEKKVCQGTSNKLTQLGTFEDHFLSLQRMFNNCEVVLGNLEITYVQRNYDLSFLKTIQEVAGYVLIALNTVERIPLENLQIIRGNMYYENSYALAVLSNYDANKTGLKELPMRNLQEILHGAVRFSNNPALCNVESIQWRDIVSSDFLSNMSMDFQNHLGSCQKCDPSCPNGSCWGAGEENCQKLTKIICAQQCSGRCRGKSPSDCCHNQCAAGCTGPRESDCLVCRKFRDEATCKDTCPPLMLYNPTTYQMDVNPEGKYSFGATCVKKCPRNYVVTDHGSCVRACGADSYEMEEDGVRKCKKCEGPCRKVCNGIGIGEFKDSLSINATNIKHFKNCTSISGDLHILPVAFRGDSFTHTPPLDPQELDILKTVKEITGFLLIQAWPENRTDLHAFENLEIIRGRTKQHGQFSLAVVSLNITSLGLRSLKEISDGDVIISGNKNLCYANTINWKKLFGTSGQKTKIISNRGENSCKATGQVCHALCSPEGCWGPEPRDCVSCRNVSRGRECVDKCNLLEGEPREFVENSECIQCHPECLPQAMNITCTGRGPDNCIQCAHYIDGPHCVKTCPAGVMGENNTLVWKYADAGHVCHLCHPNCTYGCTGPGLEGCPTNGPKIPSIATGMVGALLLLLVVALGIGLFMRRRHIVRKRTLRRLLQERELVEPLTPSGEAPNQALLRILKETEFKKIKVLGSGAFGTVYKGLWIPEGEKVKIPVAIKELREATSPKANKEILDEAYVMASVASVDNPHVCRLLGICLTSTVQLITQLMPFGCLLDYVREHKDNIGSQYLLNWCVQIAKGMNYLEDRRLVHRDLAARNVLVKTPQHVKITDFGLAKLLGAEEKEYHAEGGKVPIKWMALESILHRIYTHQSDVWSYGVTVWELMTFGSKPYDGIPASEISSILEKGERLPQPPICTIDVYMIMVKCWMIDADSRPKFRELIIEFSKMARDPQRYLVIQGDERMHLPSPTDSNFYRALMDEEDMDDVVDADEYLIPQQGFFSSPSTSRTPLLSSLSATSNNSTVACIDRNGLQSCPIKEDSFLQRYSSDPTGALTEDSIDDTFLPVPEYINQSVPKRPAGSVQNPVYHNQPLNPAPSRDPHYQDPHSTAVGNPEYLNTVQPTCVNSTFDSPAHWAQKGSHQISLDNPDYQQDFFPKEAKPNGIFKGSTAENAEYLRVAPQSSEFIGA

Regarding `C=CC(=O)Nc1cccc(N2C(=O)N(Cc3ccccc3)Cc3cnc(Nc4cnn(C)c4)nc32)c1` [Compound 1, N-(3-(3-benzyl-7-((1-methyl-1H-pyrazol-4-yl)amino)-2-oxo-3,4-dihydropyrimido[4,5-d]pyrimidin-1(2H)-yl)phenyl)acrylamide], the GI50 is below 0.5 nM in assay [1], 14 nM in assay [5], 9.9 nM in assay [7] and 4 nM in assay [8]. In addition, the pEC50 in assay [2] is 8.17. Moreover, the values for the pIC50 in assay [3], in assay [4] and in assay [6] were 7.19, 8.11 and 9.40, respectively.
Consider `CC(C)n1cc(Nc2ncc3c(n2)N(c2cccc(NC(=O)/C=C/CN(C)C)c2)C(=O)N(Cc2ccccc2)C3)cn1` [Compound 9, (E)-N-(3-(3-benzyl-7-((1-isopropyl-1H-pyrazol-4-yl)amino)-2-oxo-3,4-dihydropyrimido[4,5-d]pyrimidin-1(2H)-yl)phenyl)-4-(dimethylamino)but-2-enamide], for which, in assay [2], the pEC50 is 7.75. The pIC50 is 5.16 in assay [3] and 8.40 in assay [6]. Moreover, the GI50 stood at 103 nM in assay [5], 38 nM in assay [7] and 114 nM in assay [8].
Consider `C=CC(=O)Nc1cccc(N2C(=O)N(Cc3ccccc3)Cc3cnc(Nc4cnn(CCOC)c4)nc32)c1` [Compound 15, N-(3-(3-benzyl-7-((1-(2-methoxyethyl)-1H-pyrazol-4-yl)amino)-2-oxo-3,4-dihydropyrimido[4,5-d]pyrimidin-1(2H)-yl)phenyl)acrylamide], for which, in assay [2], the pEC50 is 8.74. Further, the pIC50 in assay [3] is 7.11; in assay [6] it was 8.70. The GI50 in assay [5] worked out at 10 nM; in assay [7], 23 nM; in assay [8] it was 6 nM.
With `CN(C)C/C=C/C(=O)Nc1cccc(N2C(=O)N(Cc3ccccc3)Cc3cnc(Nc4cn(C)nc4Cl)nc32)c1` [Compound 20, (E)-N-(3-(3-benzyl-7-((3-chloro-1-methyl-1H-pyrazol-4-yl)amino)-2-oxo-3,4-dihydropyrimido[4,5-d]pyrimidin-1(2H)-yl)phenyl)-4-(dimethylamino)but-2-enamide], the GI50 is 0.7 nM in assay [1], 34 nM in assay [5], 14.9 nM in assay [7] and 35 nM in assay [8]. In addition, the pEC50 in assay [2] is 8.70. Further, the results for the pIC50 in assay [3], in assay [4] and in assay [6] were 6.23, 8.39 and 9.00, respectively.
As for `CN(C)C/C=C/C(=O)Nc1cccc(N2C(=O)N(c3ccccc3)Cc3cnc(Nc4cn(C)nc4Cl)nc32)c1` [Compound 35, (E)-N-(3-(7-((3-chloro-1-methyl-1H-pyrazol-4-yl)amino)-2-oxo-3-phenyl-3,4-dihydropyrimido[4,5-d]pyrimidin-1(2H)-yl)phenyl)-4-(dimethylamino)but-2-enamide], the pEC50 in assay [2] was 7.10. For the same compound, the pIC50 in assay [3] was 5.66; in assay [6] it was 8.11. Further, the GI50 in assay [5] was 12 nM; in assay [7], 154 nM; in assay [8], 55 nM.
Regarding `C=CC(=O)Nc1cccc(N2C(=O)N(Cc3ccccc3)Cc3cnc(Nc4ccc(N5CCOCC5)nc4)nc32)c1` [Compound 46, N-(3-(3-benzyl-7-((6-morpholinopyridin-3-yl)amino)-2-oxo-3,4-dihydropyrimido[4,5-d]pyrimidin-1(2H)-yl)phenyl)acrylamide], the pEC50 in assay [2] was 8.43. For the same compound, the pIC50 is 5.77 in assay [3] and 8.59 in assay [6]. Further, the GI50 was found to be 14 nM in assay [5], 67 nM in assay [7] and 16 nM in assay [8].
Regarding `CN(C)C/C=C/C(=O)Nc1cccc(N2C(=O)N(Cc3ccccc3)Cc3cnc(Nc4cnn(C)c4)nc32)c1` [Compound 49, (E)-N-(3-(3-benzyl-7-((1-methyl-1H-pyrazol-4-yl)amino)-2-oxo-3,4-dihydropyrimido[4,5-d]pyrimidin-1(2H)-yl)phenyl)-4-(dimethylamino)but-2-enamide], the pEC50 in assay [2] was 8.68. The figures for the pIC50 in assay [3] and in assay [6] were at most 5.00 and 9.22, respectively. The GI50 in assay [5] amounted to 351 nM; in assay [7], 178 nM; in assay [8] it was 476 nM.
